In ChEMBL document CHEMBL4321810, “Structural Characterization of Agonist Binding to an A3 Adenosine Receptor through Biomolecular Simulations and Mutagenesis Experiments” (J Med Chem, 2019):
Residue numbers refer to the chain shown, from its start. Calls of active or inactive are those of the source.

Columns and labels:
[1] = tested on: T1, Adenosine receptor A3 (Homo sapiens), P0DMS8 [F168A]
T1 sequence (whole entry): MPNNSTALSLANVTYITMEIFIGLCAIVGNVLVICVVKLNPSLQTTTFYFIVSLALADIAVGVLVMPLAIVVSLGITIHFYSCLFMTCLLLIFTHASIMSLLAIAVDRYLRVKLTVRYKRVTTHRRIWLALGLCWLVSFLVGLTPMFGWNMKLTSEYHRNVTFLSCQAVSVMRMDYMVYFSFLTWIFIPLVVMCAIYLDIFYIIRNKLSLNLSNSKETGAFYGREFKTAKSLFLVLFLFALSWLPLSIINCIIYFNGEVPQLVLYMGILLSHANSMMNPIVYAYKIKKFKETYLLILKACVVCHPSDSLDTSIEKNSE

[2] = tested on: T2, Adenosine receptor A3 (Homo sapiens), P0DMS8 [L246A]
T2 sequence (whole entry): T1 sequence (whole entry) with A168F, L246A

[3] = tested on: T3, Adenosine receptor A3 (Homo sapiens), P0DMS8 [H272A]
T3 sequence (whole entry): T1 sequence (whole entry) with A168F, H272A

[4] = tested on: T4, Adenosine receptor A3 (Homo sapiens), P0DMS8 [S271A]
T4 sequence (whole entry): T1 sequence (whole entry) with A168F, S271A

[5] = tested on: T5, Adenosine receptor A3 (Homo sapiens), P0DMS8 [N250A]
T5 sequence (whole entry): T1 sequence (whole entry) with A168F, N250A

[6] = tested on: T6, Adenosine receptor A3 (Homo sapiens), P0DMS8 [I268A]
T6 sequence (whole entry): T1 sequence (whole entry) with A168F, I268A

Measured: pIC50

CCNC(=O)[C@H]1O[C@@H](n2cnc3c(N)ncnc32)[C@H](O)[C@@H]1O
inactive: [1] | Homo sapiens | [2] | [3] | [4] | [5] | [6]

CNC(=O)[C@H]1O[C@@H](n2cnc3c(NCc4cccc(I)c4)ncnc32)[C@H](O)[C@@H]1O
inactive: [1] | Homo sapiens | [2] | [3] | [4] | [5] | [6]
